The values below are quoted from earlier work in patent US11173217B2, “Methods and compositions for near infrared fluorescent nanodots with aggregation-induced emission characteristics” (priority 2016, dated 2021).

For this series the following is noted: in DMSO; cited from earlier work.

As for `CC1(C)C(/C=C/C=C/C=C/C=C2\N(CCCCS(=O)(=O)[O-])c3ccc4ccccc4c3C2(C)C)=[N+](CCCCS(=O)(=O)[O-])c2ccc3ccccc3c21.[Na+]` [IR-125], the “quantum yield of reference” value is on record as 13%.
